Results published in PubChem BioAssay AID256 (DTP/NCI, 2004).
Values joined by “and” are separate entries in the source; they are usually repeats but may differ in a detail not shown here. Identical values can stand only once. Inconclusive results and toxic doses are left out. How the source made its calls: active means survival T/C of 150% or more; inactive means T/C below 125% in these data.

System: CD2F1 mice, L1210 leukemia ip, survival T/C
Assay: NCI In Vivo Anticancer Drug Screen. Data for tumor model L1210 Leukemia (intraperitoneal) in CD2F1 (CDF1) mice
Details: higher = longer survival
How it was run: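 Implant tumor; dose compound or vehicle; measure endpoint in both groups; report treated divided by control.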

[1] = endpoint: mean survival time, dose: 6.25 mg/kg/injection, schedule: Q04DX003 (ip), vehicle: saline with Tween-80
[2] = endpoint: mean survival time, dose: 12.5 mg/kg/injection, schedule: Q04DX003 (ip), vehicle: saline with Tween-80
[3] = endpoint: mean survival time, dose: 25.0 mg/kg/injection, schedule: Q04DX003 (ip), vehicle: saline with Tween-80
[4] = endpoint: mean survival time, dose: 100.0 mg/kg/injection, schedule: Q01DX009 (ip), vehicle: saline with Tween-80
[5] = endpoint: mean survival time, dose: 12.5 mg/kg/injection, schedule: Q01DX009 (ip), vehicle: saline with Tween-80
[6] = endpoint: mean survival time, dose: 25.0 mg/kg/injection, schedule: Q01DX009 (ip), vehicle: saline with Tween-80
[7] = endpoint: mean survival time, dose: 50.0 mg/kg/injection, schedule: Q01DX009 (ip), vehicle: saline with Tween-80
[8] = endpoint: mean survival time, dose: 50.0 mg/kg/injection, schedule: Q04DX002 (ip), vehicle: saline with Tween-80
[9] = endpoint: mean survival time, dose: 100.0 mg/kg/injection, schedule: Q01DX001 (ip), vehicle: saline with Tween-80
[10] = endpoint: mean survival time, dose: 100.0 mg/kg/injection, schedule: Q04DX002 (ip), vehicle: saline with Tween-80
[11] = endpoint: mean survival time, dose: 200.0 mg/kg/injection, schedule: Q01DX001 (ip), vehicle: saline with Tween-80
[12] = endpoint: mean survival time, dose: 200.0 mg/kg/injection, schedule: Q04DX002 (ip), vehicle: saline with Tween-80
[13] = endpoint: mean survival time, dose: 400.0 mg/kg/injection, schedule: Q01DX001 (ip), vehicle: saline with Tween-80
[14] = endpoint: mean survival time, dose: 50.0 mg/kg/injection, schedule: Q01DX009 (ip), vehicle: Klucel (hydroxypropylcellulose) (HPC)
[15] = endpoint: mean survival time, dose: 100.0 mg/kg/injection, schedule: Q01DX009 (ip), vehicle: Klucel (hydroxypropylcellulose) (HPC)
[16] = endpoint: mean survival time, dose: 100.0 mg/kg/injection, schedule: Q04DX003 (ip), vehicle: saline with Tween-80
[17] = endpoint: mean survival time, dose: 200.0 mg/kg/injection, schedule: Q01DX009 (ip), vehicle: Klucel (hydroxypropylcellulose) (HPC)

Measured: T/C

Cc1cccc(Cl)c1NC1=NCCO1
inactive: [1] 100 % of control | [2] 100 % of control | [3] 111 % of control

CC(C)CCCCCCCCCCCCC(=O)NCC(=O)NC1C(C)OC(Nc2ncnc3nc[nH]c23)C(O)C1O (stereo unspecified)
inactive: endpoint: mean survival time, dose: 0.25 mg/kg/injection, schedule: Q01DX009 (ip), vehicle: distilled water + Tween-80 100 % of control and 102 % of control | endpoint: mean survival time, dose: 0.5 mg/kg/injection, schedule: Q01DX009 (ip), vehicle: distilled water + Tween-80 96 % of control and 100 % of control | endpoint: mean survival time, dose: 1.0 mg/kg/injection, schedule: Q01DX009 (ip), vehicle: distilled water + Tween-80 96 % of control and 104 % of control | endpoint: mean survival time, dose: 2.0 mg/kg/injection, schedule: Q01DX009 (ip), vehicle: distilled water + Tween-80 98 % of control and 107 % of control | endpoint: mean survival time, dose: 4.0 mg/kg/injection, schedule: Q01DX009 (ip), vehicle: distilled water + Tween-80 96 % of control and 106 % of control | endpoint: mean survival time, dose: 8.0 mg/kg/injection, schedule: Q01DX009 (ip), vehicle: distilled water + Tween-80 94 % of control and 102 % of control

C1CCC(C2CCCC[N-]2)[N-]C1.CCC(C)C([NH-])C(=O)O.[Cl][Pt] (stereo unspecified)
inactive: endpoint: median survival time, dose: 10.0 mg/kg/injection, schedule: Q04DX003 (ip), vehicle: saline 101 % of control | endpoint: median survival time, dose: 20.0 mg/kg/injection, schedule: Q04DX003 (ip), vehicle: saline 98 % of control | endpoint: median survival time, dose: 40.0 mg/kg/injection, schedule: Q04DX003 (ip), vehicle: saline 101 % of control | endpoint: median survival time, dose: 80.0 mg/kg/injection, schedule: Q04DX003 (ip), vehicle: saline 98 % of control

COC(=O)C1(C)CCCC2(C)C3CC(O)C(C(C)C)=CC3(O)CCC12 (stereo unspecified)
inactive: [4] 100 % of control | endpoint: mean survival time, dose: 200.0 mg/kg/injection, schedule: Q01DX009 (ip), vehicle: saline with Tween-80 96 % of control | endpoint: mean survival time, dose: 400.0 mg/kg/injection, schedule: Q01DX009 (ip), vehicle: saline with Tween-80 86 % of control

N#[N+]c1c(C(=O)O)[nH]c(=O)[nH]c1=O
inactive: [5] 100 % of control | [2] 101 % of control | [6] 91 % of control | [3] 102 % of control | [7] 96 % of control

Cc1nnc(-c2ccccc2)c(-c2ccccc2)n1
inactive: [8] 103 % of control | [9] 93 % of control | [10] 98 % of control | [11] 95 % of control | [12] 95 % of control | [13] 91 % of control

COc1ccc2nc3c4ccccc4scc-3c2c1
inactive: endpoint: mean survival time, dose: 25.0 mg/kg/injection, schedule: Q01DX009 (ip), vehicle: Klucel (hydroxypropylcellulose) (HPC) 109 % of control | [14] 97 % of control | [15] 110 % of control

Cc1cc2oc(=O)cc(N3CCOCC3)c2c(=O)o1
inactive: [16] 110 % of control | endpoint: mean survival time, dose: 200.0 mg/kg/injection, schedule: Q04DX003 (ip), vehicle: saline with Tween-80 109 % of control

Nc1nc(N)c2cc(CNc3ccc(C(=O)NC(CC(=O)O)CC(=O)O)cc3)cnc2n1
inactive: [14] 94 % of control | [15] 98 % of control

CCCCC(=O)n1c(Cl)c(/C=N\NC(N)=S)c2ccccc21
inactive: [3] 101 % of control | endpoint: mean survival time, dose: 50.0 mg/kg/injection, schedule: Q04DX003 (ip), vehicle: saline with Tween-80 101 % of control | [16] 108 % of control

CCOC(=O)N(C)N=NC
inactive: endpoint: median survival time, dose: 3.75 mg/kg/injection, schedule: Q01DX005 (ip), vehicle: saline 110 % of control | endpoint: median survival time, dose: 7.5 mg/kg/injection, schedule: Q01DX005 (ip), vehicle: saline 119 % of control | endpoint: median survival time, dose: 10.8 mg/kg/injection, schedule: Q01DX005 (ip), vehicle: saline 124 % of control | endpoint: median survival time, dose: 50.0 mg/kg/injection, schedule: Q01DX005 (ip), vehicle: saline 86 % of control

COCCOCCOc1cc(-c2c(OCCOCCOC)ccc3ccccc23)c2ccccc2c1
inactive: [9] 100 % of control | [11] 100 % of control | [13] 100 % of control

O=C1CN(Cc2ccc3c(c2)OCO3)NO1
inactive: endpoint: mean survival time, dose: 6.25 mg/kg/injection, schedule: Q01DX009 (ip), vehicle: saline with Tween-80 98 % of control and 101 % of control | [5] 98 % of control | [6] 102 % of control and 109 % of control | [7] 113 % of control | [4] 120 % of control and 104 % of control

CCC1(C)CC(=O)NC1=O (stereo unspecified)
inactive: endpoint: mean survival time, dose: 75.0 mg/kg/injection, schedule: Q01DX001 (ip), vehicle: saline 98 % of control | endpoint: mean survival time, dose: 150.0 mg/kg/injection, schedule: Q01DX001 (ip), vehicle: saline 104 % of control | endpoint: mean survival time, dose: 300.0 mg/kg/injection, schedule: Q01DX001 (ip), vehicle: saline 96 % of control

COCCCNCCCN1CC1
inactive: endpoint: mean survival time, dose: 16.62 mg/kg/injection, schedule: Q01DX009 (ip), vehicle: saline 115 % of control | endpoint: mean survival time, dose: 31.25 mg/kg/injection, schedule: Q01DX009 (ip), vehicle: saline 107 % of control | endpoint: mean survival time, dose: 62.5 mg/kg/injection, schedule: Q01DX009 (ip), vehicle: saline 94 % of control

CCOC(=O)C(CCC(O)C#N)(NC(C)=O)C(=O)OCC (stereo unspecified)
inactive: endpoint: mean survival time, dose: 25.0 mg/kg/injection, schedule: Q04DX002 (ip), vehicle: saline with Tween-80 101 % of control | [8] 96 % of control | [10] 100 % of control

Nc1nc2c(ncn2-c2ccc(OCCCNC(=O)c3cccc(S(=O)(=O)F)c3)cc2)c(=O)[nH]1
inactive: endpoint: mean survival time, dose: 75.0 mg/kg/injection, schedule: Q01DX001 (ip), vehicle: saline with Tween-80 92 % of control | endpoint: mean survival time, dose: 150.0 mg/kg/injection, schedule: Q01DX001 (ip), vehicle: saline with Tween-80 103 % of control | endpoint: mean survival time, dose: 300.0 mg/kg/injection, schedule: Q01DX001 (ip), vehicle: saline with Tween-80 101 % of control

O=C1C=CC(=O)N1c1ccccc1N1C(=O)C=CC1=O
inactive: endpoint: mean survival time, dose: 1.25 mg/kg/injection, schedule: Q01DX009 (ip), vehicle: Klucel (hydroxypropylcellulose) (HPC) 90 % of control | endpoint: mean survival time, dose: 2.5 mg/kg/injection, schedule: Q01DX009 (ip), vehicle: Klucel (hydroxypropylcellulose) (HPC) 94 % of control

O=C(N/N=C/c1ccc(Cl)c(Cl)c1)c1ccccc1
inactive: [15] 94 % of control | endpoint: mean survival time, dose: 100.0 mg/kg/injection, schedule: Q04DX003 (ip), vehicle: Klucel (hydroxypropylcellulose) (HPC) 96 % of control | [17] 90 % of control | endpoint: mean survival time, dose: 200.0 mg/kg/injection, schedule: Q04DX003 (ip), vehicle: Klucel (hydroxypropylcellulose) (HPC) 88 % of control | endpoint: mean survival time, dose: 400.0 mg/kg/injection, schedule: Q01DX009 (ip), vehicle: Klucel (hydroxypropylcellulose) (HPC) 89 % of control | endpoint: mean survival time, dose: 400.0 mg/kg/injection, schedule: Q04DX003 (ip), vehicle: Klucel (hydroxypropylcellulose) (HPC) 97 % of control

COc1cc2c(cc1OC)C1C(=CCC3c4cc(OC)c(OC)cc4CC[N+]31C)C=C2 (stereo unspecified)
inactive: [1] 102 % of control | [2] 102 % of control | [3] 98 % of control

CC(C)(C)[N+](=O)[O-]
inactive: endpoint: mean survival time, dose: 50.0 mg/kg/injection, schedule: Q01DX009 (ip), vehicle: saline 93 % of control | endpoint: mean survival time, dose: 100.0 mg/kg/injection, schedule: Q01DX009 (ip), vehicle: saline 93 % of control | endpoint: mean survival time, dose: 200.0 mg/kg/injection, schedule: Q01DX009 (ip), vehicle: saline 93 % of control

CN(C)c1ccc(/C=C2N=C(/C=C\c3ccccc3)OC\2=O)cc1
inactive: [10] 98 % of control | [12] 94 % of control | endpoint: mean survival time, dose: 400.0 mg/kg/injection, schedule: Q04DX002 (ip), vehicle: saline with Tween-80 105 % of control

Cc1cc(C)c(S(=O)(=O)n2ccnc2)c(C)c1
inactive: [14] 94 % of control | [15] 94 % of control | [17] 105 % of control
